Measured values published in ChEMBL document CHEMBL1201862, “PubChem BioAssay data set” (2004).
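A five-concentration, 48-hour dose response in 96-well plates underlies each endpoint, interpolated linearly between surrounding concentrations. Here, GI50 denotes the concentration required for 50% inhibition of growth.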 Active and inactive are the calls of the source. Cut-off read from the data, not from the text of the source: active = GI50 up to about 1.1 µM and inactive = higher.

Experiments:
Assay in all cases: DTP human tumour cell line panel, 48 h
OVCAR-5 = test system: OVCAR-5
HCC 2998 = test system: HCC 2998
LOX IMVI = test system: LOX IMVI
786-0 = test system: 786-0
EKVX = test system: EKVX
HOP-92 = test system: HOP-92
IGROV-1 = test system: IGROV-1
SK-MEL-28 = test system: SK-MEL-28
TK-10 = test system: TK-10
SR = test system: SR
Malme-3M = test system: Malme-3M
SK-MEL-2 = test system: SK-MEL-2
OVCAR-3 = test system: OVCAR-3
M14 = test system: M14
SK-MEL-5 = test system: SK-MEL-5
OVCAR-4 = test system: OVCAR-4
SN12C = test system: SN12C
NCI/ADR-RES = test system: NCI/ADR-RES
MDA-MB-435 = test system: MDA-MB-435

Measured: GI50

c1coc(CNc2[nH]cnc3nncc2-3)c1
inactive: OVCAR-5 > 100 µM | HCC 2998 > 100 µM | LOX IMVI > 100 µM | 786-0 > 100 µM | EKVX > 100 µM | HOP-92 35.8 µM | IGROV-1 > 100 µM | SK-MEL-28 > 100 µM | TK-10 > 100 µM | SR 57.1 µM | Malme-3M > 100 µM | SK-MEL-2 > 100 µM | OVCAR-3 > 100 µM | M14 > 100 µM | SK-MEL-5 > 100 µM | OVCAR-4 > 100 µM | SN12C > 100 µM

CCCCCCCC(=O)OC(CBr)COC(=O)C(C)(C)C (configuration not stated)
inactive: OVCAR-5 > 100 µM | HCC 2998 > 100 µM | LOX IMVI > 63.2 µM | 786-0 > 100 µM | EKVX > 100 µM | HOP-92 > 95.5 µM | IGROV-1 > 100 µM | SK-MEL-28 > 100 µM | TK-10 > 100 µM | SR 22.1 µM | Malme-3M > 100 µM | SK-MEL-2 > 100 µM | OVCAR-3 > 68.2 µM | M14 > 100 µM | SK-MEL-5 > 100 µM | OVCAR-4 > 95.1 µM | SN12C > 100 µM

O=C1C=C(Br)C(=O)C(Br)=C1
inactive: OVCAR-5 > 100 µM | HCC 2998 74 µM | LOX IMVI > 31.6 µM | 786-0 > 100 µM | EKVX > 100 µM | HOP-92 > 100 µM | IGROV-1 > 100 µM | SK-MEL-28 > 100 µM | TK-10 > 100 µM | SR 31.8 µM | Malme-3M > 100 µM | SK-MEL-2 > 100 µM | OVCAR-3 > 62.2 µM | M14 > 100 µM | SK-MEL-5 > 100 µM | OVCAR-4 > 100 µM | SN12C > 59.6 µM

C[n+]1c(-c2ccccc2)cc2/c(=C\c3ccc([N+](=O)[O-])cc3)c3ccccc3n21
inactive: OVCAR-5 6.85 µM | HCC 2998 11.3 µM | LOX IMVI 2.63 µM | 786-0 1.52 µM | EKVX 7.29 µM | HOP-92 1.66 µM | IGROV-1 1.39 µM | SK-MEL-28 7.41 µM | TK-10 9.06 µM | NCI/ADR-RES > 100 µM | SK-MEL-2 3.01 µM | OVCAR-3 3.06 µM | M14 5.24 µM | SK-MEL-5 1.95 µM | OVCAR-4 26.1 µM | SN12C 2.17 µM | MDA-MB-435 2.54 µM

COc1cccc(OC)c1/C=N\N1C(=O)c2ccccc2C1=O
inactive: OVCAR-5 > 100 µM | HCC 2998 29.5 µM | LOX IMVI 58.5 µM | 786-0 31.3 µM | EKVX > 100 µM | HOP-92 47.2 µM | IGROV-1 84.3 µM | SK-MEL-28 77.6 µM | TK-10 57.7 µM | SR 32.8 µM | Malme-3M 60 µM | SK-MEL-2 60.8 µM | OVCAR-3 19.9 µM | M14 19.7 µM | SK-MEL-5 52.1 µM | OVCAR-4 49 µM | SN12C 57.1 µM

COc1cc(/C=C\c2ccccc2)cc(OC)c1OC
inactive: OVCAR-5 10.3 µM | HCC 2998 11.8 µM | LOX IMVI 4.6 µM | 786-0 5.08 µM | EKVX 6.01 µM | HOP-92 3.53 µM | IGROV-1 4.65 µM | SK-MEL-28 6.28 µM | TK-10 3.94 µM | SR 3.71 µM | Malme-3M 2.95 µM | SK-MEL-2 4.07 µM | OVCAR-3 2.29 µM | M14 2.51 µM | SK-MEL-5 3.08 µM | OVCAR-4 6.46 µM | SN12C 5 µM
